Data published in US12091410B2, “Heterocyclic compound” (Takeda Pharmaceutical Company Limited, priority 2018, dated 2024).

Target: T1, human orexin type 2 receptor (Homo sapiens, UniProt O43614)
T1 construct: expressed in transfected cells
T1 sequence (O43614 1-444): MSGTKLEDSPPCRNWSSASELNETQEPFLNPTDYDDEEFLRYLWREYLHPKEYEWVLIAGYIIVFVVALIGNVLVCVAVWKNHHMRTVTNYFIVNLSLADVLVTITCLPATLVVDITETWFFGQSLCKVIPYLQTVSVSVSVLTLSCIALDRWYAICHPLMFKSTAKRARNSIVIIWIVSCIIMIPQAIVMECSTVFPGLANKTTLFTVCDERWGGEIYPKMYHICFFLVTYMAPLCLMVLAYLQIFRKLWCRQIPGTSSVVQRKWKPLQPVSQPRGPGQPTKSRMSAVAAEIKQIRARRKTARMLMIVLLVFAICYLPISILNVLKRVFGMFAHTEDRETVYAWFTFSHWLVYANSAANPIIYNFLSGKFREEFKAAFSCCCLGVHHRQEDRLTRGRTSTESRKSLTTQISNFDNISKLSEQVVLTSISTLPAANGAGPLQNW
Experiment: Measurement of orexin type 2 receptor agonist activity (calcium fluorescence, Fluo-4 AM, CHO cells forcibly expressing human OX2 receptor)
Type: cell-based
Settings: test compound 3 μM, DMSO = 0%, orexin A (human) 10 nM = 100%
Source text: To obtain a cell clone stably expressing human orexin type 2 receptor, human orexin type 2 receptor cDNA was inserted into pcDNA3.1(+) plasmid vector (Invitrogen), and a plasmid DNA for expression of human orexin type 2 receptor (pcDNA3.1(+)/hOX2R) was cloned. The plasmid DNA was introduced into CHO-dhfr cell by an electroporation method, and human orexin type 2 receptor expressing clone cells were obtained by limiting dilution method by using G418 drug resistance as a selection marker.
CHO cells forcibly expressing human OX2 receptor were seeded in each well of 384 well black transparent bottom plate (BD Falcon) at 7,500 cells/well, and cultured for one day in a 5% CO2 incubator at 37° C. After removal of the medium in the cell plate, assay buffer A containing a calcium indicator (HBSS (Thermo Fisher Scientific), 20 mM HEPES (Thermo Fisher Scientific), 0.1% BSA (Sigma-Aldrich), 2.5 μg/mL Fluo-4 AM (DOJINDO Chemical), 0.08% Pluronic F127 (DOJINDO Chemical), 1.25 mM probenecid (DOJINDO Chemical)) was added at 30 μL/well. The plate was stood for 30 min in a 5% CO2 incubator at 37° C., and further stood at room temperature for 30 min. A test compound prepared by diluting with assay buffer B (HBSS, 20 mM HEPES, 0.1% BSA) was added at 10 μL/well, and the fluorescence value was measured by FDSSpCELL (Hamamatsu Photonics K. K.) every one sec for 1 min, and thereafter every two sec for 1 min 40 sec. The activity (%) of the test compound was calculated assuming that variation in the fluorescence value when DMSO was added instead of the test compound was 0%, and variation in the fluorescence value when orexin A (human) (PEPTIDE INSTITUTE, INC.) was added at the final concentration of 10 nM was 100%.

Cc1cc2n(n1)[C@@H](COC1CCN(c3ncccn3)CC1)[C@@H](NS(C)(=O)=O)CC2 (racemic) [Example 3, rac-N-[(6S,7R)-2-methyl-7-({[1-(pyrimidin-2-yl)piperidin-4-yl]oxy}methyl)-4,5,6,7-tetrahydropyrazolo[1,5-a]pyridin-6-yl]methanesulfonamide]
OX2R agonist activity (3 μM, %): 82%

CS(=O)(=O)N[C@H]1CCc2ccnn2[C@H]1COC1CCN(c2ncc(F)cn2)CC1 (racemic) [Example 9, rac-N-[(6S,7R)-7-({[1-(5-fluoropyrimidin-2-yl)piperidin-4-yl]oxy}methyl)-4,5,6,7-tetrahydropyrazolo[1,5-a]pyridin-6-yl]methanesulfonamide]
OX2R agonist activity (3 μM, %): 85%

CCc1cc2n(n1)[C@@H](COC1CCN(c3ncccn3)CC1)[C@@H](NS(C)(=O)=O)CC2 (racemic) [Example 28, rac-N-[(6S,7R)-2-ethyl-7-({[1-(pyrimidin-2-yl)piperidin-4-yl]oxy}methyl)-4,5,6,7-tetrahydropyrazolo[1,5-a]pyridin-6-yl]methanesulfonamide]
OX2R agonist activity (3 μM, %): 102%

CS(=O)(=O)NC1CCc2ncnn2C1CO[C@H]1CC[C@@H](c2ccccc2)CC1 (mixture of isomers) [Example 6, rac-N-[(5R,6S)-5-({[(1s,4S)-4-phenylcyclohexyl]oxy}methyl)-5,6,7,8-tetrahydro[1,2,4]triazolo[1,5-a]pyridin-6-yl]methanesulfonamide]
OX2R agonist activity (3 μM, %): 85%

CCc1cc2n(n1)[C@@H](COC1CCN(c3ccccn3)CC1)[C@@H](NS(C)(=O)=O)CC2 (racemic) [Example 42, rac-N-[(6S,7R)-2-ethyl-7-({[1-(pyridin-2-yl)piperidin-4-yl]oxy}methyl)-4,5,6,7-tetrahydropyrazolo[1,5-a]pyridin-6-yl]methanesulfonamide]
OX2R agonist activity (3 μM, %): 80%

CC(C)n1cc2c(n1)[C@@H](COC1CCN(c3ncc(F)cn3)CC1)[C@@H](NS(C)(=O)=O)CC2 (racemic) [Example 44, rac-N-[(6S,7S)-7-({[1-(5-fluoropyrimidin-2-yl)piperidin-4-yl]oxy}methyl)-2-(propan-2-yl)-4,5,6,7-tetrahydro-2H-indazol-6-yl]methanesulfonamide]
OX2R agonist activity (3 μM, %): 94%

CC(C)c1cc2n(n1)[C@@H](COC1CCN(c3ncc(F)cn3)CC1)[C@@H](NS(C)(=O)=O)CC2 (relative stereo) [Example 24, rel-N-[(6S,7R)-7-({[1-(5-fluoropyrimidin-2-yl)piperidin-4-yl]oxy}methyl)-2-(propan-2-yl)-4,5,6,7-tetrahydropyrazolo[1,5-a]pyridin-6-yl]methanesulfonamide]
OX2R agonist activity (3 μM, %): 111%

Cc1cc2n(n1)C(CO[C@H]1CC[C@@H](c3ccccc3)CC1)C(NS(C)(=O)=O)CC2 (mixture of isomers) [Example 1, rac-N-[(6S,7R)-2-methyl-7-({[(1s,4S)-4-phenylcyclohexyl]oxy}methyl)-4,5,6,7-tetrahydropyrazolo[1,5-a]pyridin-6-yl]methanesulfonamide]
OX2R agonist activity (3 μM, %): 104%

Cc1cn2c(n1)[C@@H](Cc1cccc(-c3cccc(F)c3)c1)[C@@H](NS(C)(=O)=O)CC2 (relative stereo) [Example 57, rel-N-{(7S,8S)-8-[(3′-fluoro[1,1′-biphenyl]-3-yl)methyl]-2-methyl-5,6,7,8-tetrahydroimidazo[1,2-a]pyridin-7-yl}methanesulfonamide]
OX2R agonist activity (3 μM, %): 94%

CCc1cc2n(n1)[C@@H](COC1CCN(c3ncc(F)cn3)CC1)[C@@H](NS(C)(=O)=O)CC2 (relative stereo) [Example 33, rel-N-[(6S,7R)-2-ethyl-7-({[1-(5-fluoropyrimidin-2-yl)piperidin-4-yl]oxy}methyl)-4,5,6,7-tetrahydropyrazolo[1,5-a]pyridin-6-yl]methanesulfonamide]
OX2R agonist activity (3 μM, %): 91%

CC(C)c1cc2n(n1)[C@@H](COC1CCN(c3ncccn3)CC1)[C@@H](NS(C)(=O)=O)CC2 (relative stereo) [Example 56, rel-N-[(6S,7R)-2-(propan-2-yl)-7-({[1-(pyrimidin-2-yl)piperidin-4-yl]oxy}methyl)-4,5,6,7-tetrahydropyrazolo[1,5-a]pyridin-6-yl]methanesulfonamide]
OX2R agonist activity (3 μM, %): 100%

Cc1cc2n(n1)[C@@H](Cc1cccc(-c3ccccc3)c1)[C@@H](NS(C)(=O)=O)CC2 (racemic) [Example 7, rac-N-{(6S,7S)-7-[([1,1′-biphenyl]-3-yl)methyl]-2-methyl-4,5,6,7-tetrahydropyrazolo[1,5-a]pyridin-6-yl}methanesulfonamide]
OX2R agonist activity (3 μM, %): 77%

CCc1cc2n(n1)C(CO[C@H]1CC[C@@H](c3ccccc3)CC1)C(NS(C)(=O)=O)CC2 (mixture of isomers) [Example 2, rac-N-[(6S,7R)-2-ethyl-7-({[(1s,4S)-4-phenylcyclohexyl]oxy}methyl)-4,5,6,7-tetrahydropyrazolo[1,5-a]pyridin-6-yl]methanesulfonamide]
OX2R agonist activity (3 μM, %): 107%

CC(C)c1cc2n(n1)[C@@H](Cc1cccc(-c3ccccc3)c1)[C@@H](NS(C)(=O)=O)CC2 (racemic) [Example 23, rac-N-[(6S,7S)-7-[([1,1′-biphenyl]-3-yl)methyl]-2-(propan-2-yl)-4,5,6,7-tetrahydropyrazolo[1,5-a]pyridin-6-yl]methanesulfonamide]
OX2R agonist activity (3 μM, %): 109%

CCc1cc2n(n1)[C@@H](COC1CCN(c3ncccn3)CC1)[C@@H](NS(=O)(=O)CC)CC2 (racemic) [Example 45, rac-N-[(6S,7R)-2-ethyl-7-({[1-(pyrimidin-2-yl)piperidin-4-yl]oxy}methyl)-4,5,6,7-tetrahydropyrazolo[1,5-a]pyridin-6-yl]ethanesulfonamide]
OX2R agonist activity (3 μM, %): 101%

Cc1nn2c(c1C)CC[C@H](NS(C)(=O)=O)[C@@H]2COC1CCN(c2ncc(F)cn2)CC1 (racemic) [Example 12, rac-N-[(6S,7R)-7-({[1-(5-fluoropyrimidin-2-yl)piperidin-4-yl]oxy}methyl)-2,3-dimethyl-4,5,6,7-tetrahydropyrazolo[1,5-a]pyridin-6-yl]methanesulfonamide]
OX2R agonist activity (3 μM, %): 102%

CCc1cc2n(n1)[C@@H](Cc1cccc(-c3ccccc3)c1)[C@@H](NS(C)(=O)=O)CC2 (racemic) [Example 8, rac-N-{(6S,7S)-7-[([1,1′-biphenyl]-3-yl)methyl]-2-ethyl-4,5,6,7-tetrahydropyrazolo[1,5-a]pyridin-6-yl}methanesulfonamide]
OX2R agonist activity (3 μM, %): 92%

Cc1ccc2c(n1)[C@@H](Cc1cccc(-c3ccccc3)c1)[C@@H](NS(C)(=O)=O)CC2 (racemic) [Example 62, rac-N-{(7S,8S)-8-[([1,1′-biphenyl]-3-yl)methyl]-2-methyl-5,6,7,8-tetrahydroquinolin-7-yl}methanesulfonamide]
OX2R agonist activity (3 μM, %): 72%

CCc1nn2c(c1Cl)CC[C@H](NS(C)(=O)=O)[C@@H]2COC1CCN(c2ncccn2)CC1 (racemic) [Example 32, rac-N-[(6S,7R)-3-chloro-2-ethyl-7-({[1-(pyrimidin-2-yl)piperidin-4-yl]oxy}methyl)-4,5,6,7-tetrahydropyrazolo[1,5-a]pyridin-6-yl]methanesulfonamide]
OX2R agonist activity (3 μM, %): 92%
